# Laboratory results from patent US20230392173A1, “ENGINEERED BIOSYNTHETIC PATHWAY FOR PRODUCTION OF 4-AMINOPHENYLETHYLAMINE BY FERMENTATION” (Zymergen Inc., priority 2020, published 2023).
# Legend:
# Format in all cases: cell-based
# Saccharomyces cerevisiae = system: Saccharomyces cerevisiae
# Experimental: (§1) FIG. 1: Toxicity impact of 4-APEA across a range of organisms tested in an Enzyscreen system. Various organisms are grown in media that is supplemented with the molecule of interest, and the growth of the organism is monitored over time. Analysis of the growth-time-course data allows determination of toxicity properties of the molecule of interest, such as the Minimal Inhibitory Concentration (MIC), the concentration at which growth is slowed to half (Ki), and the slope at which increased toxicity effects are observed (alpha). For FIG. 1, product toxicity was measured as a function of reduced substrate uptake with increasing product concentration.
# (§2) The term “Ki,” as used herein, refers to the concentration of a chemical (e.g., 4-APEA) at which the maximal growth rate of cells in culture is slowed by half. Cultures of the cells are grown in media supplemented with varying concentrations of a chemical, and the cell growth is monitored over time. Exponential growth curve data at each chemical concentration are used to determine a specific growth rate p using the following equation:
# (§3) where: X=cell concentration X0=cell concentration at time (t)=0 μ=specific growth rate. The maximal growth rate for each chemical concentration is determined (μobs) and the Ki is the chemical concentration at which the maximal growth rate has been slowed to half of the maximal growth rate in the absence of the chemical (μmax). Ki (denoted K1 below) can be determined from the equation:
# (§4) where: CI=concentration of inhibitor KI=inhibition constant—inhibitor concentration where growth rate is half of maximum α=inhibition parameter to fit data μmax=the maximum growth rate of a culture in the absence of a chemical μobs=the maximum growth rate of a culture at a given concentration of a chemical
# (§5) The term “alpha” (“α”), as used herein, refers to the slope at which toxicity effects are observed. Cultures of the cells are grown in media supplemented with increasing concentrations of a chemical, and the cell growth is monitored over time. Alpha can be determined from the equation: […]
# (§6) One obstacle to efficient production of 4-aminophenylethylamine (4-APEA) by fermentation is that 4-APEA is toxic to many host microbes used conventionally for fermentation. FIG. 1 depicts the concentration of 4-APEA at which an organism's growth is slowed by half (Ki) and the slope (alpha) at which toxicity effects are observed over increasing 4-APEA concentrations. A larger Ki and smaller alpha indicate higher tolerance and less susceptibility to inhibition, respectively. […] K. phaffi is expected to perform similarly to K. pastoris as a production host.
# Bacillus licheniformis = system: Bacillus licheniformis
# Experimental: as §1, §2, §3, §4, §5, §6
# Komagataella phaffi = system: Komagataella phaffi
# Experimental: as §1, §2, §3, §4, §5, §6
# Yarrowia lipolytica = system: Yarrowia lipolytica
# Experimental: as §1, §2, §3, §4, §5, §6
smiles,measurement,setting,value
"NCCc1ccc(N)cc1 [Strain 4-APEA, 4-aminophenylethylamine]",toxicity of 4-APEA (growth inhibition),Saccharomyces cerevisiae,substantial toxicity
same,toxicity of 4-APEA (growth inhibition),Bacillus licheniformis,better results
same,toxicity of 4-APEA (growth inhibition),Komagataella phaffi,better results
same,toxicity of 4-APEA (growth inhibition),Yarrowia lipolytica,better results
